Experimental data from ChEMBL document CHEMBL4321875, “Potent, Selective, Water Soluble, Brain-Permeable EP2 Receptor Antagonist for Use in Central Nervous System Disease Models” (J Med Chem, 2020).
In brackets after ≈: the same amount, converted by molar mass.

Tests used:
[1] = Aqueous solubility in PBS pH 7.4 incubated for 24 hrs by nephelometry; type: physicochemical
[2] = Stability in mouse liver microsomes assessed as half life at 1 uM incubated for 120 mins by LC-MS/MS analysis; type: ADME, Microsome; details: 2 h
[3] = Solubility of compound at 2 mg/ml incubated for 24 hrs by shake flask thermodynamic solubility method based HPLC analysis; type: physicochemical

Row | Structure (SMILES) | solubility kinetic at 24 h [1] | t1/2 [2] | solubility thermodynamic at 24 h [3]
1 | Cc1[nH]c2ccccc2c1CCNC(=O)c1ccc(N2CCOCC2)cc1 | 70 µM (≈ 25.4 µg/mL) |  | 
2 | Cc1[nH]c2ccccc2c1CCNC(=O)c1ccc(N2CCOCC2)nc1 | 206 µM (≈ 75.1 µg/mL) |  | 
3 | Cc1[nH]c2ccccc2c1CCNC(=O)c1cnc(Nc2ccncc2)nc1 | 38 µM (≈ 14.2 µg/mL) |  | 
4 | Cc1cc(C)nc(Nc2ncc(C(=O)NCCc3c(C(F)(F)F)[nH]c4ccccc34)cn2)c1 | 45 µM (≈ 20.5 µg/mL) |  | 
5 | Cc1ccnc(Nc2ncc(C(=O)NCCc3c(C)[nH]c4ccccc34)cn2)c1 | 25 µM (≈ 9.66 µg/mL) | 8 min | 
6 | Cc1cc(C)nc(Nc2ncc(C(=O)NCCc3c(C(F)(F)F)[nH]c4ccccc34)cn2)c1.Cl |  |  | 700 µM
7 | Cc1ccc(Nc2ncc(C(=O)NCCc3c(C)[nH]c4ccccc34)cn2)c(C)n1 | 100 µM (≈ 40 µg/mL) |  | 
